Molecules are shown by their SMILES. pIC50: −log10 of the molar value. Like-named read-outs stand apart in the source and are kept apart here.

The target in the assay is T1, viral kinase pUL-97 (Human cytomegalovirus, UniProt P16788).
T1 construct: The pUL-97 gene was cloned into a baculovirus vector; GST (glutathione S-transferase) (N); made in house; host or cells: Sf9 insect cells, baculovirus
As to the kind of experiment: UL97 kinase assay on Immobilon plate. The assay is classed as biochemical. The conditions noted are these: inhibition of UL 97 kinase activity, read-out: Activity Class [A, B, C]. An outline of the steps: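 Compound was titrated into a radiometric reaction of Sf9-expressed GST-UL97 kinase, incubated 1 h at 30 °C in Tris-HCl pH 7.5/MnCl2/DTT buffer before EDTA stop. MBP substrate and ATP (3 μM in the added assay buffer) were supplied with γ-[33P]ATP. Labelled product bound to Immobilon filter was washed and counted by scintillation.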

[1] abbreviates: class by IC50 / % inhibition at 10 or 100 μM.
The mark [2] stands for this setting: class by IC50 / % inhibition at 10 μM or 100 μM.

T1 sequence (P16788 whole entry): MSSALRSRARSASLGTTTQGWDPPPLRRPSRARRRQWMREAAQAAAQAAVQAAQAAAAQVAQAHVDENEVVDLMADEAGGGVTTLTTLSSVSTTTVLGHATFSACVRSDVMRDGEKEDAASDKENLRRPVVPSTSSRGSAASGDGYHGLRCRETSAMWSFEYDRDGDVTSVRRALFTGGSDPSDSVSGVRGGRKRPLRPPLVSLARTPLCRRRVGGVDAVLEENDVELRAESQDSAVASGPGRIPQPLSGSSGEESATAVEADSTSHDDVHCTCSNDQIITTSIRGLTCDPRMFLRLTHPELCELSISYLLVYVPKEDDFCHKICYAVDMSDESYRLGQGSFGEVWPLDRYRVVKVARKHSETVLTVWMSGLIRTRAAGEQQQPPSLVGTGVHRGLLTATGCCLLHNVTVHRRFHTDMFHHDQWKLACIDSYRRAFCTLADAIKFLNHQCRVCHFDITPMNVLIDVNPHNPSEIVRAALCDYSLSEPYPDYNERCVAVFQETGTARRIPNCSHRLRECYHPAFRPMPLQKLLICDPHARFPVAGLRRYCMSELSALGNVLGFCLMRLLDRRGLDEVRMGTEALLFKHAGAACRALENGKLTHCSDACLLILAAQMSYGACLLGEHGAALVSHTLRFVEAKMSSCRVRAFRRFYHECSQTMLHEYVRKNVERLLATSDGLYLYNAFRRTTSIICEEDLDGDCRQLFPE

Turning to `CCOc1ccc(-c2cncc(N3CCN(c4ccccc4F)CC3)n2)cc1` [compound 127, 6′-(4-Ethoxy-phenyl)-4-(2-fluoro-phenyl)-3,4,5,6-tetrahydro-2H-[1,2′]bipyrazinyl], the pIC50 under setting [1] was 4.00 to 5.00.
Still for that read-out and setting: the figure for `Fc1ccccc1N1CCN(c2cncc(-c3ccc4ccccc4c3)n2)CC1` [compound 123, 4-(2-Fluoro-phenyl)-6′-naphthalen-2-yl-3,4,5,6-tetrahydro-2H-[1,2′]bipyrazinyl] is 5.00 to 6.00; for `COc1ccccc1N1CCN(c2cncc(-c3ccc4ccccc4c3)n2)CC1` [compound 86, 4-(2-Methoxy-phenyl)-6′-naphthalen-2-yl-3,4,5,6-tetrahydro-2H-[1,2′]bipyrazinyl] it is 5.00 to 6.00.
For the compound `CN(C)c1ccc(-c2cncc(N3CCN(c4ccc(Cl)cc4)CC3)n2)cc1` [compound 340, {4-[4-(4-Chloro-phenyl)-3,4,5,6-tetrahydro-2H-[1,2′]bipyrazinyl-6′-yl]-phenyl}-dimethyl-amine], under setting [2], the pIC50 is 4.00 to 5.00.
Turning to `Cc1cccc(N2CCN(c3cncc(-c4ccc5ccccc5c4)n3)CC2C)c1` (stereo not shown) [compound 347, 3-Methyl-6′-naphthalen-2-yl-4-m-tolyl-3,4,5,6-tetrahydro-2H-[1,2′]bipyrazinyl], under setting [2], the pIC50 was 4.00 to 5.00.
Regarding `COc1ccc(N2CCN(c3cncc(-c4cccs4)n3)CC2)cc1OC` [compound 44, 4-(3,4-Dimethoxy-phenyl)-6′-thiophen-2-yl-3,4,5,6-tetrahydro-2H-[1,2′]bipyrazinyl], under setting [1], the pIC50 was 5.00 to 6.00.
For the compound `Clc1cccc(N2CCN(c3cncc(-c4ccsc4)n3)CC2)c1` [compound 80, 4-(3-Chloro-phenyl)-6′-thiophen-3-yl-3,4,5,6-tetrahydro-2H-[1,2′]bipyrazinyl], under setting [1], the pIC50 was 4.00 to 5.00.
On the same count and under the same terms, the figure for `c1coc(CNc2cncc(-c3cc4ccccc4o3)n2)c1` [compound 23, (6-Benzofuran-2-yl-pyrazin-2-yl)-furan-2-ylmethyl-amine] is 4.00 to 5.00; for `Clc1ccc(-c2cncc(N3CCN(c4ccccn4)CC3)n2)cc1` [compound 14, 6′-(4-Chloro-phenyl)-4-pyridin-2-yl-3,4,5,6-tetrahydro-2H-[1,2′]bipyrazinyl] it is 4.00 to 5.00.
On the same count and under the same terms, the figure for `c1cc(N2CCN(c3cncc(-c4ccsc4)n3)CC2)ccn1` [compound 79, 4-Pyridin-4-yl-6′-thiophen-3-yl-3,4,5,6-tetrahydro-2H-[1,2′]bipyrazinyl] is 5.00 to 6.00.
`Clc1cccc(N2CCN(c3cncc(-c4ccccc4Oc4ccccc4)n3)CC2)c1` [compound 185, 4-(3-Chloro-phenyl)-6′-(2-phenoxy-phenyl)-3,4,5,6-tetrahydro-2H-[1,2′]bipyrazinyl]: the pIC50 under setting [1] was 4.00 to 5.00.
Regarding `COc1ccccc1N1CCN(c2cncc(-c3ccc(SC)cc3)n2)CC1` [compound 108, 4-(2-Methoxy-phenyl)-6′-(4-methylsulfanyl-phenyl)-3,4,5,6-tetrahydro-2H-[1,2′]bipyrazinyl], the pIC50 under setting [1] was 5.00 to 6.00.
Take `Cc1ccc(N2CCN(c3cncc(-c4ccc(F)c(Cl)c4)n3)CC2)c(C)c1` [compound 281, 6′-(3-Chloro-4-fluoro-phenyl)-4-(2,4-dimethyl-phenyl)-3,4,5,6-tetrahydro-2H-[1,2′]bipyrazinyl]: the pIC50 under setting [2] was 4.00 to 5.00.
The same measure, in the same setting: the figure for `Cc1ccc(N2CCN(c3cncc(-c4ccc5ccccc5c4)n3)CC2)c(C)c1` [compound 320, 4-(2,4-Dimethyl-phenyl)-6′-naphthalen-2-yl-3,4,5,6-tetrahydro-2H-[1,2′]bipyrazinyl] is 4.00 to 5.00.
As for `COc1ccc(-c2cncc(NCCc3cccnc3)n2)cc1` [compound 18], under setting [1], the pIC50 was above 6.00.
Same read-out and setting: next, `Cc1ccccc1-c1cncc(N2CCN(c3ccccc3F)CC2)n1` [compound 124, 4-(2-Fluoro-phenyl)-6′-o-tolyl-3,4,5,6-tetrahydro-2H-[1,2′]bipyrazinyl]: 4.00 to 5.00.
Consider `c1ccc(N2CCN(c3cncc(-c4cccc5ccccc45)n3)CC2)cc1` [compound 246, 6′-Naphthalen-1-yl-4-phenyl-3,4,5,6-tetrahydro-2H-[1,2′]bipyrazinyl], for which, under setting [2], the pIC50 is 4.00 to 5.00.
In the case of `CSc1ccc(-c2cncc(N3CCN(c4ccncc4)CC3)n2)cc1` [compound 66, 6′-(4-Methylsulfanyl-phenyl)-4-pyridin-4-yl-3,4,5,6-tetrahydro-2H-[1,2′]bipyrazinyl], the pIC50 under setting [1] is above 6.00.
`CC(=O)c1ccc(-c2cncc(N3CCN(c4cccc(C)c4C)CC3)n2)s1` [compound 296, 1-{5-[4-(2,3-Dimethyl-phenyl)-3,4,5,6-tetrahydro-2H-[1,2′]bipyrazinyl-6′-yl]-thiophen-2-yl}-ethanone]: the pIC50 under setting [2] was 4.00 to 5.00.
In the case of `Fc1ccc(N2CCN(c3cncc(-c4ccc5ccccc5c4)n3)CC2)cc1` [compound 267, 4-(4-Fluoro-phenyl)-6′-naphthalen-2-yl-3,4,5,6-tetrahydro-2H-[1,2′]bipyrazinyl], the pIC50 under setting [2] is above 6.00.
The same measure, in the same setting: next, `CC(=O)c1ccccc1-c1cncc(N2CCN(c3ccncc3)CC2)n1` [compound 218, 1-[2-(4-Pyridin-4-yl-3,4,5,6-tetrahydro-2H-[1,2′]bipyrazinyl-6′-yl)-phenyl]-ethanone]: 4.00 to 5.00; `Cc1ccc(N2CCN(c3cncc(-c4ccc5ccccc5c4)n3)CC2)cc1C` [compound 335, 4-(3,4-Dimethyl-phenyl)-6′-naphthalen-2-yl-3,4,5,6-tetrahydro-2H-[1,2′]bipyrazinyl]: 5.00 to 6.00.
On to `c1ccc(-c2cncc(N3CCN(c4ccccn4)CC3)n2)cc1` [compound 49], for which, under setting [1], the pIC50 is 5.00 to 6.00.
`Cc1cccc(-c2cncc(N3CCN(c4ccc(F)cc4)CC3)n2)c1` [compound 232, 4-(4-Fluoro-phenyl)-6′-m-tolyl-3,4,5,6-tetrahydro-2H-[1,2′]bipyrazinyl]: the pIC50 under setting [2] is 4.00 to 5.00.
`Cc1ccc(N2CCN(c3cncc(-c4ccc(C(F)(F)F)cc4)n3)CC2)cc1` [compound 178, 4-p-Tolyl-6′-(4-trifluoromethyl-phenyl)-3,4,5,6-tetrahydro-2H-[1,2′]bipyrazinyl]: the pIC50 under setting [1] was 5.00 to 6.00.
Consider `Cc1ccc(N2CCN(c3cncc(-c4csc5ccccc45)n3)CC2)cc1C` [compound 317, 6′-Benzo[b]thiophen-3-yl-4-(3,4-dimethyl-phenyl)-3,4,5,6-tetrahydro-2H-[1,2′]bipyrazinyl], for which the pIC50 under setting [2] was 4.00 to 5.00.
Same read-out and setting: next, `Cc1ccc(-c2cncc(N3CCN(c4ccccn4)CC3)n2)cc1` [compound 328, 4-Pyridin-2-yl-6′-p-tolyl-3,4,5,6-tetrahydro-2H-[1,2′]bipyrazinyl]: 5.00 to 6.00.
Still for that read-out and setting: the figure for `CC(=O)c1ccc(-c2cncc(N3CCN(c4ccccn4)CC3)n2)cc1` [compound 308, 1-[4-(4-Pyridin-2-yl-3,4,5,6-tetrahydro-2H-[1,2′]bipyrazinyl-6′-yl)-phenyl]-ethanone] is 5.00 to 6.00.
In the case of `COc1cccc(-c2cncc(N3CCN(c4ccc(OC)c(OC)c4)CC3)n2)c1` [compound 134, 4-(3,4-Dimethoxy-phenyl)-6′-(3-methoxy-phenyl)-3,4,5,6-tetrahydro-2H-[1,2′]bipyrazinyl], the pIC50 under setting [1] was 5.00 to 6.00.
Still for that read-out and setting: the figure for `Fc1ccccc1N1CCN(c2cncc(-c3ccsc3)n2)CC1` [compound 122, 4-(2-Fluoro-phenyl)-6′-thiophen-3-yl-3,4,5,6-tetrahydro-2H-[1,2′]bipyrazinyl] is 5.00 to 6.00.
For `Brc1ccc(-c2cncc(N3CCN(c4cnccn4)CC3)n2)cc1` [compound 313, 6-(4-Bromo-phenyl)-2′,3′,5′,6′-tetrahydro-[2,1′;4′,2″]terpyrazine], under setting [2], the pIC50 is above 6.00.
For the compound `CN(C)c1cccc(-c2cncc(N3CCN(c4ccncc4)CC3)n2)c1` [compound 16, Dimethyl-[3-(4-pyridin-4-yl-3,4,5,6-tetrahydro-2H-[1,2′]bipyrazinyl-6′-yl)-phenyl]-amine], the pIC50 under setting [1] is 4.00 to 5.00.
On the same count and under the same terms, the figure for `Oc1ccc(-c2cncc(NCc3cccs3)n2)cc1` [compound 30, 4-{6-[(Thiophen-2-ylmethyl)-amino]-pyrazin-2-yl}-phenol] is above 6.00; for `Cc1ccc(-c2cncc(N3CCN(c4ccc(F)cc4F)CC3)n2)cc1` [compound 142, 4-(2,4-Difluoro-phenyl)-6′-p-tolyl-3,4,5,6-tetrahydro-2H-[1,2′]bipyrazinyl] it is 4.00 to 5.00; for `Fc1ccccc1N1CCN(c2cncc(-c3cc(C(F)(F)F)cc(C(F)(F)F)c3)n2)CC1` [compound 196, 6′-(3,5-Bis-trifluoromethyl-phenyl)-4-(2-fluoro-phenyl)-3,4,5,6-tetrahydro-2H-[1,2′]bipyrazinyl] it is 4.00 to 5.00.
On the same count and under the same terms, the figure for `Cc1ccccc1-c1cncc(N2CCN(c3cccc(Cl)c3)CC2)n1` [compound 82, 4-(3-Chloro-phenyl)-6′-o-tolyl-3,4,5,6-tetrahydro-2H-[1,2′]bipyrazinyl] is 4.00 to 5.00; for `COc1ccc2cc(-c3cncc(N4CCN(c5ccccc5OC)CC4)n3)ccc2c1` [compound 187, 6′-(6-Methoxy-naphthalen-2-yl)-4-(2-methoxy-phenyl)-3,4,5,6-tetrahydro-2H-[1,2′]bipyrazinyl] it is 4.00 to 5.00.
Regarding `Cc1cccc(-c2cncc(N3CCN(c4cnccn4)CC3)n2)c1` [compound 329, 6-m-Tolyl-2′,3′,5′,6′-tetrahydro-[2,1′;4′,2″]terpyrazine], the pIC50 under setting [2] was 5.00 to 6.00.
As for `Cc1ccc(-c2cncc(N3CCN(c4ccccn4)CC3)n2)cc1C` [compound 50, 6′-(3,4-Dimethyl-phenyl)-4-pyridin-2-yl-3,4,5,6-tetrahydro-2H-[1,2′]bipyrazinyl], the pIC50 under setting [1] was 5.00 to 6.00.
For `OCc1ccc(-c2cncc(N3CCN(c4ccc(F)cc4F)CC3)n2)cc1` [compound 200, {4-[4-(2,4-Difluoro-phenyl)-3,4,5,6-tetrahydro-2H-[1,2′]bipyrazinyl-6′-yl]-phenyl}-methanol], the pIC50 under setting [2] was 4.00 to 5.00.

Values taken from patent US20080194574A1, “Pyrazine Derivatives As Effective Compounds Against Infectious Diseases” (AXXIMA PHARMACEUTICALS AG, priority 2003, published 2008).
